Test results reported in patent EP2450062A1, “HYDROCOLLOID PLASTERS, INCLUDING VIABLE PROBIOTIC STRAINS OF LACTOBACILLUS SPP. AND USED FOR VARIOUS TYPES OF WOUNDS, INFECTED TISSUES, DRY WOUNDS AND DEEP WOUNDS” (Universidad De Concepcion, priority 2009, dated 2011).

Test system: Lactobacillus acidophilus LPV 31
Assay: bactericidal effect of glutaraldehyde in the films (bacterial counts)
Details: GA concentrations studied, in gelatin films
Excerpt: The cross-linking agent used is preferably, but not exclusively, glutaraldehyde (GA), due to its high efficiency stabilising collagen derivatives, its high reaction rate, and its ability to modify the physico-chemical properties of gelatin-based gels.

SMILES: O=CCCCC=O [GA, glutaraldehyde]
- bactericidal effect: do not have an observable bactericidal effect
